The results in this text go back to PubChem BioAssay (NCI).

Some test systems named below: UO-31 renal; SK-OV-3 ovarian; A549 NSCLC; HCT-15 colon; SW-620 colon; MALME-3M melanoma; MCF7 breast; SNB-19 CNS; HOP-62 NSCLC; OVCAR-8 ovarian.
What all share (assay): DTP human tumour cell line panel, 48 h

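Assay format: 96-well plates, 48-hour exposure. Abbreviation: GI50, concentration required for 50% inhibition of growth. TGI: concentration producing complete growth inhibition.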 A value given as a limit tells only on which side of the number the result lay.

What is called GI50 is the concentration that inhibits growth by half. In general, TGI refers to the concentration at which net growth stops. Take `Cc1ccc(C2CC(c3cccc(Nc4ccncc4)c3)=NN2c2ccc(Cl)cc2)cc1` (stereo unspecified): the GI50 is 1.35 µM with UO-31 renal; 1.65 µM with SK-OV-3 ovarian; 1.73 µM in the test on A549 NSCLC; 1.83 µM in the test with HCT-15 colon; 1.55 µM with SW-620 colon; 1.6 µM in the test on MALME-3M melanoma. Also, in the test with MCF7 breast, the GI50 was 1.8 µM. The TGI with UO-31 renal turned out to be 2.63 µM; in the test on SK-OV-3 ovarian, 3.17 µM; with A549 NSCLC, 3.29 µM; in the test on HCT-15 colon, 3.43 µM; in the test on SW-620 colon, 3.04 µM; in the test with MALME-3M melanoma it was 3.05 µM. For the same compound, the TGI with MCF7 breast is 3.86 µM.

In the case of `Clc1cccc(Cc2cn3cc(-c4ccccc4)nc3s2)c1`, the GI50 is 7.47 µM in the test with UO-31 renal; 39.6 µM in the test with SK-OV-3 ovarian; 8.92 µM with SNB-19 CNS; 3.93 µM in the test with A549 NSCLC; 1.26 µM with SW-620 colon; 21.4 µM with MALME-3M melanoma. Further, the figures for the GI50 in the test on HOP-62 NSCLC, with OVCAR-8 ovarian and in the test on MCF7 breast were 9.1 µM, 20.5 µM and 2.79 µM, respectively. For the same compound, the TGI in the test with UO-31 renal, in the test with SK-OV-3 ovarian, in the test on SNB-19 CNS, in the test on A549 NSCLC, in the test with SW-620 colon and with MALME-3M melanoma was more than 100 µM throughout. Further, the TGI is 40.5 µM in the test on HOP-62 NSCLC, more than 100 µM in the test with OVCAR-8 ovarian and more than 100 µM in the test with MCF7 breast.

Take `COc1ccc2oc(-c3ccc(Cl)cc3)c(N3CCN(C)CC3)c2c1`: the GI50 in the test with UO-31 renal was 1.05 µM; in the test on SK-OV-3 ovarian, 2.17 µM; in the test on SNB-19 CNS, 1.97 µM; in the test on A549 NSCLC it was 1.83 µM; with HCT-15 colon, 1.62 µM; in the test on SW-620 colon, 1.82 µM. For the same compound, the values for the GI50 with HOP-62 NSCLC, in the test on OVCAR-8 ovarian and in the test with MCF7 breast were 1.82 µM, 1.9 µM and 1.7 µM, respectively. The concentration for total growth inhibition (TGI) in the test with UO-31 renal stood at 2.71 µM; in the test on SK-OV-3 ovarian, 4.99 µM; in the test with SNB-19 CNS it was 5.18 µM; in the test on A549 NSCLC it was 3.94 µM; with HCT-15 colon it was 3.24 µM; in the test on SW-620 colon, 3.48 µM. In addition, the TGI turned out to be 3.86 µM with HOP-62 NSCLC, 3.94 µM in the test with OVCAR-8 ovarian and 3.5 µM with MCF7 breast.

`O=C(Nc1cccc(-n2cc(-c3ccncc3)c(-c3ccc(O)c(Cl)c3)n2)c1)Nc1ccc(Cl)c(C(F)(F)F)c1`: the GI50 in the test with UO-31 renal was 2.65 µM; with SK-OV-3 ovarian, 3.14 µM; with SNB-19 CNS it was 3.63 µM; with A549 NSCLC, 1.83 µM; with HCT-15 colon it was 2.58 µM; with SW-620 colon, 2.78 µM. Besides, the GI50 in the test on MALME-3M melanoma is 2.43 µM; with HOP-62 NSCLC it was 3.15 µM; with MCF7 breast it was 1.8 µM. Further, the TGI in the test with UO-31 renal is 7.24 µM; with SK-OV-3 ovarian, 9.82 µM; in the test on SNB-19 CNS it was more than 100 µM; in the test on A549 NSCLC it was 5.86 µM; with HCT-15 colon, 10.9 µM; with SW-620 colon it was 7.62 µM. Moreover, the TGI in the test on MALME-3M melanoma came to 7.59 µM; in the test with HOP-62 NSCLC it was 9.77 µM; in the test with MCF7 breast it was 4.34 µM.

Turning to `Cn1c2ccccc2c(=S)c2cc(NC(=O)CCCCC(=O)Nc3ccc4c(c3)c(=S)c3ccccc3n4C)ccc21`, the concentration for total growth inhibition (TGI) with UO-31 renal, with SK-OV-3 ovarian, in the test with SNB-19 CNS, with A549 NSCLC, in the test with HCT-15 colon and in the test with SW-620 colon was more than 100 µM throughout. Moreover, the TGI with HOP-62 NSCLC, in the test on OVCAR-8 ovarian and with MCF7 breast was more than 100 µM throughout.

In the case of `CC(=O)O[C@@H]1CC(=O)O[C@@H]2C[C@@H](CC/C(Cl)=C/C/C=C\1C)O[C@@H]2CO`, the GI50 in the test on UO-31 renal, in the test on SK-OV-3 ovarian, in the test with SNB-19 CNS, in the test on A549 NSCLC, in the test on HCT-15 colon and in the test on SW-620 colon was more than 25 µM each time. Besides, the GI50 in the test on HOP-62 NSCLC, in the test on OVCAR-8 ovarian and in the test on MCF7 breast was more than 25 µM each time. Moreover, the TGI with UO-31 renal, in the test with SK-OV-3 ovarian, with SNB-19 CNS, in the test on A549 NSCLC, with HCT-15 colon and with SW-620 colon was more than 25 µM throughout. Besides, the TGI in the test on HOP-62 NSCLC, in the test with OVCAR-8 ovarian and in the test on MCF7 breast was more than 25 µM in each case.

`C/C(CN1C(=O)c2ccccc2C1=O)=N\NS(C)(=O)=O`: the TGI in the test with UO-31 renal, with SK-OV-3 ovarian, with SNB-19 CNS, in the test with A549 NSCLC, in the test on HCT-15 colon and in the test with SW-620 colon was more than 100 µM throughout. Besides, the TGI in the test on MALME-3M melanoma, in the test with HOP-62 NSCLC and in the test on OVCAR-8 ovarian was more than 100 µM throughout.

In the case of `N#Cc1ccccc1/C=N/O`, the concentration for total growth inhibition (TGI) in the test on UO-31 renal was more than 100 µM; in the test on SK-OV-3 ovarian, more than 100 µM; with SNB-19 CNS it was more than 100 µM; in the test with A549 NSCLC, more than 100 µM; in the test with HCT-15 colon it was more than 56.3 µM; in the test with SW-620 colon it was more than 51.8 µM. Besides, the total growth inhibition concentration (TGI) with MALME-3M melanoma, in the test with HOP-62 NSCLC and with OVCAR-8 ovarian was more than 100 µM throughout.

As for `COc1ccc(C2SC(C)C(=O)N2NC(=O)C(O)c2ccccc2)cc1` (stereo unspecified), the GI50 in the test on UO-31 renal is more than 100 µM; in the test on SK-OV-3 ovarian, 63.1 µM; in the test with SNB-19 CNS it was more than 100 µM; in the test with A549 NSCLC, more than 100 µM; in the test on HCT-15 colon, more than 100 µM; in the test on SW-620 colon, more than 100 µM. The GI50 with HOP-62 NSCLC, with OVCAR-8 ovarian and in the test on MCF7 breast was more than 100 µM each time. Further, the TGI with UO-31 renal, in the test on SK-OV-3 ovarian, in the test on SNB-19 CNS, with A549 NSCLC, with HCT-15 colon and in the test on SW-620 colon was more than 100 µM in each case. Further, the TGI in the test on HOP-62 NSCLC, in the test with OVCAR-8 ovarian and in the test on MCF7 breast was more than 100 µM each time.
